The values that follow come from patent publication US20260272797A1, “FRAGRANCE COMPOSITION” (GIVAUDAN SA, priority 2023, published 2026).

Test [1] in a line: Gas-phase evaluation of each fragrance ingredient alone against model scalp malodour, MiniVAS device, panel of 5 experts. The conditions noted are these: for Scalp MOC of ingredient alone: expert description. The method, then: In a first set of experiments, the scalp malodour counteractancy of 173 fragrance ingredients was evaluated by panel of 5 experts.
The evaluation was performed in the gas phase, using a MiniVAS™ device (ex Givaudan SA). This device is a regulating means that comprises a plurality of channels adapted to convey a gas (more particularly air) through cartridges, each cartridge containing a fragrance ingredient adsorbed onto an adsorbent. The air flows coming from the different cartridges are admixed and conveyed to the user's nose through a tubing fitted with an olfactometer funnel. Thus, by opening and closing channels and maintaining these opened and closed, respectively, for predetermined times, the regulating means can determine which fragrance ingredients and how much thereof are conveyed and when, and thus alter the nature of the fragrance perceived by the user. A description of the device can be found in WO2014154909A1, page 2, line 11 to page 4, line 7, and in H. R. Gygax et al. “Evolution of Real Time Aroma Creation at Givaudan”, poster presented at the 12th Weurman Flavour Research Symposium. July 2008. Interlaken, Switzerland; DOI: 10.13140/2.1.1924.0641.
For the sake of the present evaluation, one cartridge contained the scalp malodour (in the form of a model malodour) and each fragrance ingredient was assigned to another cartridge. The malodour counteractancy of each fragrance ingredient was evaluated separately against the scalp malodour. A constant air flow rate of 50 ml/min was used for all measurements. The perceived malodour intensity, as well as the fragrance intensity, were ranked on a scale of 1-5 (1=barely noticeable, 2=weak, 3=medium, 4=strong and 5=very strong).

A short description of test [2]: Impact of fragrance ingredients on scalp malodour counteractancy of 80 fragrance compositions (Example 2 protocol, statistical presence). The conditions noted are these: series of 80 fragrance compositions. The method, then:
In a second set of experiments, the impact of these fragrance ingredients on the scalp malodour counteractancy of a fragrance composition was assessed. The scalp malodour counteractancy of a series of 80 fragrance compositions was assessed by performing the evaluation protocol described in Example 2. […] Ingredients that were statistically more present in fragrances having a high malodour counteractancy were assigned a positive status, whereas ingredients that were statistically more present in compositions having a low malodour counteractancy were assigned a negative status.

[3] abbreviates: Table 3, air flow 50 ml/min, scale of 1-5 (1=barely noticeable, 5=very strong).
Setting [4] is: Table 4, air flow 50 ml/min, scale of 1-5.

`CCOC(=O)C(C)C` [ethyl 2-methylpropanoate] returned an MO intensity in test [1] (setting [3]) of 1. The “Scalp MOC of ingredient alone” value in test [1] (Table 3, gas phase) was “No effect”. Also, the “Impact on scalp MOC of fragrance composition” value (“Impact on scalp MOC” below) in test [2] (Table 3) is “Positive”.

Take `CCCCCCC1C(=O)CCC1C(=O)OC` (stereo not drawn) [methyl 2-hexyl-3-oxocyclopentane-1-carboxylate]: the MO intensity in test [1] (setting [4]) stood at 1. Further, the “Impact on scalp MOC” value in test [2] (Table 4) was “Negative”.

The compound `O=C1CCC/C=C\CCCCCCCCCC1` [(Z)-cyclohexadec-5-enone] yielded an MO intensity in test [1] (setting [4]) of 1. Besides, the “Scalp MOC of ingredient alone” value in test [1] (Table 4, gas phase) is on record as “Enhances MO”. The “Impact on scalp MOC” value in test [2] (Table 4) is “Negative”.

In test [1] (setting [4]), `CC/C=C\CC1=C(C)CCC1=O` [(Z)-3-methyl-2-(pent-2-en-1-yl)cyclopent-2-enone] gave an MO intensity of 1.8. Also, in test [1] (Table 4, gas phase), the “Scalp MOC of ingredient alone” value is on record as “Low coverage”. Also, the “Impact on scalp MOC” value in test [2] (Table 4) is listed as “Negative”.

In the case of `CCC(O)COC1CCCCC1C(C)(C)C` (stereo not drawn) [1-((2-(tert-butyl)cyclohexyl)oxy)butan-2-ol], the MO intensity in test [1] (setting [3]) is listed as 2.3. For the same compound, in test [1] (Table 3, gas phase), the “Scalp MOC of ingredient alone” value was “Coverage”. Besides, the “Impact on scalp MOC” value in test [2] (Table 3) is “Positive”.

On to `CC(=O)/C=C/C1C(C)=CCCC1(C)C` (stereo not drawn) [(E)-4-(2,6,6-trimethyl-1-cyclohex-2-enyl)but-3-en-2-one], for which the MO intensity in test [1] (setting [4]) came to 4.5. For the same compound, the “Impact on scalp MOC” value in test [2] (Table 4) is listed as “Negative”.

`CC(C)(O)Cc1ccccc1` [2-methyl-1-phenylpropan-2-ol] registered an MO intensity in test [1] (setting [4]) of 1. Besides, in test [2] (Table 4), the “Impact on scalp MOC” value is “Negative”.

Compound `CCCc1ccc(O)c(OC)c1` [2-methoxy-4-propylphenol] gave an MO intensity in test [1] (setting [3]) of 2. Also, the “Impact on scalp MOC” value in test [2] (Table 3) was “Positive”.

`C/C=C(\CC)CCC(C)CCO` (stereo not drawn) [(E)-6-ethyl-3-methyloct-6-en-1-ol] registered an MO intensity in test [1] (setting [3]) of 3. Also, the “Impact on scalp MOC” value in test [2] (Table 3) was “Positive”.

`COc1ccc(C=O)cc1` [4-methoxybenzaldehyde] registered an MO intensity in test [1] (setting [3]) of 3. Moreover, the “Impact on scalp MOC” value in test [2] (Table 3) was “Positive”.

Turning to `CCCCCCCC(=O)OCC` [ethyl octanoate], the MO intensity in test [1] (setting [3]) is on record as 1. Besides, the “Scalp MOC of ingredient alone” value in test [1] (Table 3, gas phase) is “No effect”. Also, the “Impact on scalp MOC” value in test [2] (Table 3) is listed as “Positive”.

Compound `CCCC1CCOC(C)S1` (stereo not drawn) [2-methyl-4-propyl-1,3-oxathiane] returned an MO intensity in test [1] (setting [4]) of 1. The “Impact on scalp MOC” value in test [2] (Table 4) is “Negative”.

On to `CCCC1(C(C)(C)C)C=CC(C)O1` (stereo not drawn) [5-tert-butyl-2-methyl-5-propyl-2H-furan], for which the MO intensity in test [1] (setting [3]) stood at 4. In addition, the “Impact on scalp MOC” value in test [2] (Table 3) is on record as “Positive”.

In the case of `CCCCCC1(C)CCC(C)(C)C1=O` (stereo not drawn) [2,2,5-trimethyl-5-pentylcyclopentanone], the MO intensity in test [1] (setting [3]) is on record as 3.5. Besides, in test [2] (Table 3), the “Impact on scalp MOC” value is “Positive”.

Compound `CCCC(=O)OC(C)(C)Cc1ccccc1` [2-methyl-1-phenylpropan-2-yl butanoate] gave an MO intensity in test [1] (setting [4]) of 3. Further, in test [2] (Table 4), the “Impact on scalp MOC” value is reported as “Negative”.

In the case of `CC(=O)/C(C)=C/C1=C(C)CCCC1(C)C` [(E)-3-methyl-4-(2,6,6-trimethylcyclohex-1-en-1-yl)but-3-en-2-one], the MO intensity in test [1] (setting [3]) is 3. In addition, the “Impact on scalp MOC” value in test [2] (Table 3) is recorded as “Positive”.

As for `CCCCC1COCC(C)C1OC(C)=O` (stereo not drawn) [3-butyl-5-methyltetrahydro-2H-pyran-4-yl acetate], in test [1] (setting [4]), the MO intensity was 1. The “Impact on scalp MOC” value in test [2] (Table 4) is listed as “Negative”.

For the compound `c1ccc2[nH]ccc2c1` [1H-indole], the MO intensity in test [1] (setting [3]) turned out to be 4. For the same compound, the “Impact on scalp MOC” value in test [2] (Table 3) is given as “Positive”.

In test [1] (setting [4]), `C=CCc1ccc(OC(C)=O)c(OC)c1` [4-allyl-2-methoxyphenyl acetate] registered an MO intensity of 1. In test [2] (Table 4), the “Impact on scalp MOC” value is “Negative”.

In test [1] (setting [4]), `CCCCCC/C(C=O)=C\c1ccccc1` [(E)-2-benzylideneoctanal] showed an MO intensity of 1.2. Besides, the “Impact on scalp MOC” value in test [2] (Table 4) is “Negative”.

For `Cc1occc(=O)c1O` [3-hydroxy-2-methyl-4H-pyran-4-one], in test [1] (setting [3]), the MO intensity was 4. Also, the “Impact on scalp MOC” value in test [2] (Table 3) was “Positive”.

Compound `CC(CC=O)CCCC(C)(C)O` (stereo not drawn) [7-hydroxy-3,7-dimethyloctanal] registered an MO intensity in test [1] (setting [3]) of 2. The “Impact on scalp MOC” value in test [2] (Table 3) is “Positive”.

For `CC1CC(C)(c2ccccc2)CO1` (stereo not drawn) [2,4-dimethyl-4-phenyltetrahydrofuran], the MO intensity in test [1] (setting [4]) is reported as 4.1. The “Impact on scalp MOC” value in test [2] (Table 4) is given as “Negative”.

Compound `CC(=O)/C(C)=C/C1C(C)=CCCC1(C)C` (stereo not drawn) [(E)-3-methyl-4-(2,6,6-trimethylcyclohex-2-en-1-yl)but-3-en-2-one] returned an MO intensity in test [1] (setting [3]) of 3. The “Impact on scalp MOC” value in test [2] (Table 3) is “Positive”.

For `CCOc1cc(C)ccc1O` [2-ethoxy-4-methylphenol], the MO intensity in test [1] (setting [3]) worked out at 2.8. The “Impact on scalp MOC” value in test [2] (Table 3) is given as “Positive”.

Consider `CC(C=O)Cc1ccc(C(C)(C)C)cc1` (stereo not drawn) [3-(4-(tert-butyl)phenyl)-2-methylpropanal], for which the MO intensity in test [1] (setting [3]) came to 2.8. Moreover, the “Impact on scalp MOC” value in test [2] (Table 3) is listed as “Positive”.

In the case of `CC(=O)c1cc2c(cc1C)C(C)(C)C(C)CC2(C)C` (stereo not drawn) [1-(3,5,5,6,8,8-hexamethyl-5,6,7,8-tetrahydronaphthalen-2-yl)ethanone], the MO intensity in test [1] (setting [3]) is recorded as 3. In addition, in test [2] (Table 3), the “Impact on scalp MOC” value was “Positive”.

For `CC(C)=CCCC(C)CC=O` (stereo not drawn) [3,7-dimethyloct-6-enal], in test [1] (setting [3]), the MO intensity stood at 3. Besides, the “Impact on scalp MOC” value in test [2] (Table 3) is on record as “Positive”.

With `CCCCC/C=C\C=C\C(=O)OCC` [(2E,4Z)-ethyl deca-2,4-dienoate], the MO intensity in test [1] (setting [4]) stood at 1. Besides, the “Impact on scalp MOC” value in test [2] (Table 4) was “Negative”.

In the case of `O=C(OC1CCCCC1)c1ccccc1O` [cyclohexyl 2-hydroxybenzoate], the MO intensity in test [1] (setting [3]) was found to be 1. Moreover, the “Scalp MOC of ingredient alone” value in test [1] (Table 3, gas phase) is “No effect”. Also, the “Impact on scalp MOC” value in test [2] (Table 3) is on record as “Positive”.

As for `CC1COCc2cc3c(cc21)C(C)(C)C(C)C3(C)C` (stereo not drawn) [4,6,6,7,8,8-hexamethyl-1,3,4,6,7,8-hexahydrocyclopenta[g]isochromene], the MO intensity in test [1] (setting [3]) came out at 3. In addition, in test [2] (Table 3), the “Impact on scalp MOC” value is listed as “Positive”.

In test [1] (setting [3]), `CC(=O)OCCC1=CCC2CC1C2(C)C` (stereo not drawn) [2-(6,6-dimethylbicyclo[3.1.1]hept-2-en-2-yl)ethyl acetate] had an MO intensity of 2. Also, the “Impact on scalp MOC” value in test [2] (Table 3) is “Positive”.

The compound `CC(=O)C1CC/C=C\C(C)C(C)/C=C\C/C=C/1C` (stereo not drawn) [1-((2E,5Z,9Z)-2,7,8-trimethylcyclododeca-2,5,9-trien-1-yl)ethanone] showed an MO intensity in test [1] (setting [3]) of 1. In test [1] (Table 3, gas phase), the “Scalp MOC of ingredient alone” value is given as “No effect”. The “Impact on scalp MOC” value in test [2] (Table 3) is listed as “Positive”.

In test [1] (setting [3]), `C/C=C/C(=O)C1C(C)=CCCC1(C)C` (stereo not drawn) [(E)-1-(2,6,6-trimethylcyclohex-2-en-1-yl)but-2-en-1-one] displayed an MO intensity of 3.7. In test [2] (Table 3), the “Impact on scalp MOC” value is given as “Positive”.

The compound `C=C(C)[C@@H]1CC=C(C)C(=O)C1` [(5R)-2-methyl-5-prop-1-en-2-ylcyclohex-2-en-1-one] gave an MO intensity in test [1] (setting [4]) of 0. In addition, in test [1] (Table 4, gas phase), the “Scalp MOC of ingredient alone” value was “Enhances MO”. Also, in test [2] (Table 4), the “Impact on scalp MOC” value was “Negative”.

Turning to `COc1cc(C=O)ccc1OC(=O)C(C)C` [4-formyl-2-methoxyphenyl 2-methylpropanoate], the MO intensity in test [1] (setting [3]) is 1.5. The “Impact on scalp MOC” value in test [2] (Table 3) is “Positive”.

With `COc1ccc(CC(C)C=O)cc1` (stereo not drawn) [3-(4-methoxyphenyl)-2-methylpropanal], the MO intensity in test [1] (setting [3]) amounted to 1. In test [1] (Table 3, gas phase), the “Scalp MOC of ingredient alone” value is on record as “No effect”. The “Impact on scalp MOC” value in test [2] (Table 3) is “Positive”.

`CC(=O)C1=C(C)C2C[C@@]3(C1)C(CC[C@@H]3C)C2(C)C` (stereo partly drawn) [1-((1S,8aS)-1,4,4,6-tetramethyl-2,3,3a,4,5,8-hexahydro-1H-5,8a-methanoazulen-7-yl)ethanone] yielded an MO intensity in test [1] (setting [4]) of 1. The “Impact on scalp MOC” value in test [2] (Table 4) was “Negative”.

In test [1] (setting [3]), `C/C(=C\CCC=O)CCCC(C)(C)O` [(4E)-9-hydroxy-5,9-dimethyl-4-decenal] showed an MO intensity of 1. Besides, in test [1] (Table 3, gas phase), the “Scalp MOC of ingredient alone” value is on record as “No effect”. Moreover, in test [2] (Table 3), the “Impact on scalp MOC” value is on record as “Positive”.

As for `CC1=CC(C)C(C=O)CC1` (stereo not drawn) [2,4-dimethylcyclohex-3-enecarbaldehyde], in test [1] (setting [4]), the MO intensity was 3.8. Moreover, the “Scalp MOC of ingredient alone” value in test [1] (Table 4, gas phase) is given as “Good coverage”.
